Our source for the T/C values is ChEMBL document CHEMBL1150700, “Antitumor agents, 74. Bruceanol-A and -B, two new antileukemic quassinoids from Brucea antidysenterica” (1985).

Holding throughout (assay type): functional
Test [1] has as its system P388. As to the kind of experiment: In vivo antitumor activity against mouse P388 cells at 2 mg/kg in 3 day dosing schedule relative to control.
Test [2] relates to P388. In words: In vivo antitumor activity against mouse P388 cells at 0.5 mg/kg in 3 day dosing schedule relative to control.
Test [3] deals with P388. In words: In vivo antitumor activity against mouse P388 cells at 1 mg/kg in 3 day dosing schedule relative to control.
The subject of test [4] is P388. In words: In vivo antitumor activity against mouse P388 cells at 200 mg/kg in 1 day dosing schedule relative to control.

With `CCCCCC(=O)O[C@H]1C(=O)O[C@@H]2C[C@H]3C(C)=CC(=O)[C@@H](O)[C@]3(C)[C@H]3[C@@H](O)[C@H](O)[C@@]4(C(=O)OC)OC[C@]32[C@@H]14`, the values for the T/C with P388 [1] and in the test with P388 [2] were 134% and 123%, respectively. For the compound `COC(=O)[C@@]12OC[C@]34[C@H]([C@@H](O)[C@@H]1O)[C@@]1(C)[C@H](O)C(=O)C=C(C)[C@@H]1C[C@H]3OC(=O)[C@H](OC(=O)c1ccccc1)[C@@H]24`, the T/C is on record as 129% in the test on P388 [3] and 130% in the test on P388 [2].

Regarding `O=c1[nH]cc(F)c(=O)[nH]1` [FLUOROURACIL], the T/C with P388 [4] is given as 135%.
